The source of these data is patent US20040106802A1, “Novel compounds and therapeutic uses thereof” (TORRENT PHARMACEUTICALS LTD., priority 2002, published 2004).

Counter-ions that a name gives are not always drawn.

Broadly, the IC50 is the midpoint of a concentration-inhibition curve.

This assay deals with T1, Porcine DPP-IV (Sus scrofa, UniProt P22411).
T1 construct: purchased Sigma-Aldrich Germany
T1 sequence (P22411 whole entry): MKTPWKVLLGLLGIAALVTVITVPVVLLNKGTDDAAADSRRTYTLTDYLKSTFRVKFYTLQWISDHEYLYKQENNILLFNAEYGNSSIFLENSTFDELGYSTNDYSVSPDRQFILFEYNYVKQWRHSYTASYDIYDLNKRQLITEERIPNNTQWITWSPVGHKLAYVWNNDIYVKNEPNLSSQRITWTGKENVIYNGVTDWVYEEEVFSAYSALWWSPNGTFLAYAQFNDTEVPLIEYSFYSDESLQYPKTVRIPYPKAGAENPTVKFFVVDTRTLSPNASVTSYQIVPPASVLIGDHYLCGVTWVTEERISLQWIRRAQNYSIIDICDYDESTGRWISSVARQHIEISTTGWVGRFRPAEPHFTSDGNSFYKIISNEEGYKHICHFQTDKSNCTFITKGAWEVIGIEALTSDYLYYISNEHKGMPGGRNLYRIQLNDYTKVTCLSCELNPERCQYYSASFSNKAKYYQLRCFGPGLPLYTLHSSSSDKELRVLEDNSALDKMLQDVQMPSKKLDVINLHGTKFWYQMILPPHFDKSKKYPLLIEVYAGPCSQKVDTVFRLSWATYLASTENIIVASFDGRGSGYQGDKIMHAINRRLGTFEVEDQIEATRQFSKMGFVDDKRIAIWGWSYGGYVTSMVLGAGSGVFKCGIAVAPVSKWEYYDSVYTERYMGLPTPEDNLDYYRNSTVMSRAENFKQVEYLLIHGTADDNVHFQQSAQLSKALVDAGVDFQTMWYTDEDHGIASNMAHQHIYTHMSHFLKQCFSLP
Kind of assay: Assay of DPP-IV enzyme inhibitory activity (spectrophotometric, Gly-Pro-pNA cleavage). The format is biochemical. The conditions noted are these: Porcine DPP-IV, Gly-Pro-pNA substrate, 30° C.; mean ± SD of three experiments except compound Nos. 133 & 139; read-out: IC50 (μM) Mean ± SD, inhibitory activity on DPP-IV enzyme activity. The protocol: Assay of DPP-IV Enzyme Inhibitory Activity.
The assay method is a modified method (as described by Welch et al, 1998) based on spectrophotometric determination of the product formed by penultimate proline cleaving activity of the enzyme.
Assay protocol involves incubation of the enzyme dipeptidyl peptidase IV with the test substance at 30° C. for 30 min followed by addition of this reaction mixture to the substrate Gly-Pro-pNA that was equilibrated at 30° C. for 2 min. The enzyme cleaves the substrate at penultimate proline and releases p-nitroanilide, the optical density of which is measured at 385 nm. The formation of p-nitroanilide will be reduced in the presence of inhibitor. […] The activity of molecule is expressed in terms of % inhibition. At least three different concentrations were tried out for each of the test substances. The percentage inhibitions for each of the concentrations were plotted and an IC50 of the test compound was worked out. The enzyme inhibitory activity of different test compounds were compared based on the IC50 values.
The percentage inhibition % I, is calculated using the formula:
% I=[(1−vi/v0)]*100 where vi and v0 are the Vmax values with and without the test substance, respectively.
Substrate solution: 0.5 mM in 45 mM phosphate buffer
Substrate used: Gly-Pro-p-nitroanilide (Source: Sigma-Aldrich Co. Germany)
3.288 mg substrate in 1 ml 45 mM phosphate buffer was prepared as stock solution. 0.25 ml of this stock solution was diluted to 5 ml to get 0.5 mM substrate solution (90 μl to be added in each well). The stock solution of the substrate was used within three days of preparation.
Enzyme solution: Porcine DPP-IV (Sigma-Aldrich Germany) was used throughout the study. 0.4 mU in 80 μl of Tris. HCl buffer was prepared. Fresh solutions were prepared everyday for the assays.
Various concentrations of inhibitor were used: 0.391 μM, 0.781 μM, and 3.125 μM. Solutions of inhibitor were prepared and used on the same day.
280 μl of enzyme solution (0.4-mU/80 μl in Tris HCl buffer) was added to the eppendorf containing 70 μl solution of inhibitor or vehicle and mixed. This reaction mixture was incubated for 30 min at 30° C. The 96 well plate containing substrate solution was thermally equilibrated in the spectrophotometer for 2 min at 30° C. Later 100 μl of the enzyme-inhibitor pre-incubation solution was added to respective wells in a 96 well plate. Each concentration of the inhibitor was tested in triplicates.
The rate of change in UV absorbance (in presence of various concentrations of the inhibitor) was measured at 385 nm, with respect to wells containing only 0.5 mM substrate in 45 mM phosphate buffer as blank at every 10 min for 2 hours after adding enzyme-inhibitor mixture to wells containing substrate solution.
Consider `CC(C)N1CCC(N(N)CC(=O)N2CSCC2C#N)CC1` (centres unmarked) [Compound No. 51, 3-[1-Oxo-2-(1-isopropyl-4-piperidinyl) hydrazino)]ethyl-4-cyano thiazolidine trifluoroacetate], for which the IC50 was determined as 3.5 ± 0.06 µM.
For `CC1CCC(N(CC(=O)N2CSCC2C#N)NC2CCN(Cc3cccnc3)CC2)CC1` (centres unmarked) [Compound No. 53, 3-[1-Oxo-2-[1-(4-methylcyclohexyl)-2-(1-(3-pyridinylmethyl)-4-piperidinyl)]hydrazino]ethyl-4-cyanothiazolidine] the value was 16.7 ± 2.07 µM; for `CC1CCC(N(CC(=O)N2CSCC2C#N)NC2CCN(C(C)C)CC2)CC1` (centres unmarked) [Compound No. 54, 3-[1-Oxo-2-[1-(4-methylcyclohexyl)-2-(1-isopropyl-4-piperidinyl)]hydrazino]ethyl-4-cyanothiazolidine], 6.43 ± 0.15 µM.
In the case of `Cc1ccc(S(=O)(=O)N2CCC(N(N)CC(=O)N3CSCC3C#N)CC2)cc1` (centres unmarked) [Compound No. 55, 3-[1-Oxo-2-(1-(1-(4-methylphenylsulphonyl)-4-piperidinyl)-hydrazino)]ethyl-4-cyanothiazolidine trifluoroacetate], the IC50 amounted to 2.7 ± 0.16 µM.
Take `Cc1ccc(S(=O)(=O)N2CCC(NN(C)CC(=O)N3CSCC3C#N)CC2)cc1` (centres unmarked) [Compound No. 56, 3-[1-Oxo-2-[1-methyl-2-(1-(4-methylphenylsulphonyl)-piperidin-4-yl)]hydrazino]ethyl-4-cyanothiazolidine trifluoroacetate]: the 50% inhibitory concentration (IC50) was 44.2 ± 1.36 µM.
For `N#CC1CSCN1C(=O)CN(N)C1CCN(Cc2cccnc2)CC1` (centres unmarked) [Compound No. 57, 3-[1-Oxo-2-(1-(1-(3-pyridinemethyl)-4-piperidinyl) hydrazino)]ethyl-4-cyanothiazolidine tris trifluoroacetate] the value was 4.77 ± 0.41 µM; for `CN(CC(=O)N1CSCC1C#N)NC1CCN(Cc2ccc(C#N)cc2)CC1` (centres unmarked) [Compound No. 58, 3-[1-Oxo-2-[1-methyl-2-(1-(4-cyanophenylmethyl)piperidin-4-yl)]hydrazino]ethyl-4-cyanothiazolidine bis trifluoroacetate], 17.1 ± 0.3 µM.
Regarding `CN(CC(=O)N1CSCC1C#N)NC1CCN(Cc2cccnc2)CC1` (centres unmarked) [Compound No. 59, 3-[1-Oxo-2-[1-methyl-2-(1-(3-pyridinylmethyl)-piperidin-4-yl)]hydrazino]ethyl-4-cyanothiazolidine tris trifluoroacetate], the IC50 came to 9.27 ± 0.42 µM.
In the case of `CCCC1CCC(N(N)CC(=O)N2CSCC2C#N)CC1` (centres unmarked) [Compound No. 60, 3-[1-Oxo-2-(1-(4-npropylcyclohexyl) hydrazino)]ethyl-4-cyanothiazolidine trifluoro acetate], the half-maximal inhibitory concentration (IC50) came to 0.69 ± 0.03 µM.
Regarding `N#CC1CSCN1C(=O)CN(N)C1CCN(Cc2ccc([N+](=O)[O-])cc2)CC1` (centres unmarked) [Compound No. 61, 3-[1-Oxo-2-(1-(1-(4-nitrophenylmethyl)-piperidin-4-yl) hydrazino]ethyl-4-cyanothiazolidine trifluoroacetate], the half-inhibitory concentration (IC50) was found to be 0.7 ± 0.03 µM.
For `N#CC1CSCN1C(=O)CN(N)C1CCN(S(=O)(=O)c2ccc(Cl)cc2)CC1` (centres unmarked) [Compound No. 62, 3-[1-Oxo-2-[1-(1-(4-chlorophenylsulphonyl)-piperidin-4-yl)]hydrazino]ethyl-4-cyanothiazolidine trifluoroacetate] the value was 1.54 ± 0.34 µM; for `N#CC1CSCN1C(=O)CN(N)C12CCC(CC1)C2` (centres unmarked) [Compound No. 63, 3-[1-Oxo-2-(1-(1-norcamphoranyl) hydrazino)]ethyl-4-cyanothiazolidine trifluoroacetate], 0.73 ± 0.02 µM.
Regarding `CCCC1CCC(N(N)CC(=O)N2CSCC2C#N)CC1` (centres unmarked) [Compound No. 64, 3-[1-Oxo-2-(1-(4-npropylcyclohexyl)hydrazino)]ethyl-4-cyanothiazolidine trifluoroacetate], the half-inhibitory concentration (IC50) is 0.34 ± 0.07 µM.
The same measure for `CC1CCC(C(=O)N2CCC(N(N)CC(=O)N3CSCC3C#N)CC2)CC1` (centres unmarked) [Compound No. 65, 3-[1-Oxo-2-[1-(1-(4-methylcyclohexylcarbonyl)-piperidin-4-yl)]hydrazino]ethyl-4-cyanothiazolidine trifluoroacetate]: 0.87 ± 0.06 µM; for `CC(=O)N1CCC(N(N)CC(=O)N2CSCC2C#N)CC1` (centres unmarked) [Compound No. 66, 3-[1-Oxo-2-(1-(1-acetyl)-piperidin-4-yl)hydrazino]ethyl-4-cyanothiazolidine trifluoroacetate]: 1.53 ± 0.01 µM; for `CC1CCC(N(N)CC(=O)N2CS(=O)(=O)CC2C#N)CC1` (centres unmarked) [Compound No. 67, 1,1-Dioxo-3-[1-oxo-2-(1-(4-methylcyclohexyl)hydrazino)]ethyl-4-cyanothiazolidine trifluoroacetate]: 72.5 ± 7.05 µM.
The same measure for `CC1CCC(NN(C)CC(=O)N2CSCC2C#N)CC1` (centres unmarked) [Compound No. 68, 3-[1-Oxo-2-(1-methyl-2-(4-methylcyclohexyl) hydrazino)]ethyl-4-cyanothiazolidine]: 45.3 ± 3.03 µM.
For `CC1CCC(NN(C)CC(=O)N2CSCC2C#N)CC1` (centres unmarked) [Compound No. 69, 3-[1-Oxo-2-(1-methyl-2-(4-methylcyclohexyl) hydrazino)]ethyl-4-cyanothiazolidine] the value was 69 ± 10.1 µM; for `N#CC1CSCN1C(=O)CN(N)C1CCN(C(=O)c2cccc(Cl)c2Cl)CC1` (centres unmarked) [Compound No. 70, 3-[1-Oxo-2-(1-(1-(2,3-dichlorophenylcarbonyl)-piperidin-4-yl) hydrazino)]ethyl-4-cyanothiazolidine trifluoroacetate], 1.79 ± 0.12 µM; for `CN(CC(=O)N1CSCC1C#N)NC1CCN(S(=O)(=O)c2ccc(Cl)cc2)CC1` (centres unmarked) [Compound No. 71, 3-[1-Oxo-2-[1-methyl-2-(1-(4-chlorophenylsulphonyl)-piperidin-4-yl)]-hydrazino]ethyl-4-cyanothiazolidine], 86.2 ± 5.3 µM.
`N#CC1CSCN1C(=O)CN(N)C1CCNCC1` (centres unmarked) [Compound No. 72, 3-[1-Oxo-2-(1-(4-piperidinyl) hydrazino)]ethyl-4-cyanothiazolidine bis trifluoroacetate]: the IC50 was found to be 12.1 ± 0.13 µM.
With `N#CC1CCCN1C(=O)CN(N)C1CCN(S(=O)(=O)c2ccc(Cl)cc2)CC1` (centres unmarked) [Compound No. 73, [1-Oxo-2-(1-(1-(4-chlorophenylsulphonyl)-piperidin-4-yl)-hydrazino)]ethyl-2-cyanopyrrolidine trifluoroacetate], the IC50 came out at 48.9 ± 1.81 µM.
`CC(=O)NN(CC(=O)N1CSCC1C#N)C1CCC(C)CC1` (centres unmarked) [Compound No. 74, 3-[1-Oxo-2-(1-(4-methylcyclohexyl)-2-acetyl) hydrazino]ethyl-4-cyanothiazolidine]: the IC50 worked out at 97.7 ± 13.1 µM.
`N#CC1CSCN1C(=O)CN(N)C12CC3CC(CC(C3)C1)C2` (centres unmarked) [Compound No. 75, 3-[1-Oxo-2-(1-(1-adamantanyl) hydrazino)]ethyl-4-cyanothiazolidine trifluoroacetate]: the IC50 was 0.31 ± 0.05 µM.
Take `CC(C)(C)C(=O)N1CCC(N(N)CC(=O)N2CSCC2C#N)CC1` (centres unmarked) [Compound No. 76, 3-[1-Oxo-2-(1-(1-(tert-butylcarbonyl)-piperidin-4-yl) hydrazino)]ethyl-4-cyanothiazolidine trifluoroacetate]: the IC50 was found to be 4.15 ± 0.29 µM.
Regarding `N#CC1CSCN1C(=O)CN(N)C1CCN(c2ccc(C(F)(F)F)cn2)CC1` (centres unmarked) [Compound No. 77, 3-[1-Oxo-2-(1-(1-(5-trifluoromethyl-2-pyridinyl)-piperidin-4-yl) hydrazino)]ethyl-4-cyano thiazolidine bis trifluoroacetate], the concentration for half-maximal inhibition (IC50) amounted to 0.67 ± 0.06 µM.
